The values that follow come from patent publication US6150414A, “Compositions and methods for treating viral infections” (priority 1992, dated 2000).

In general, EC50 refers to the concentration that produces a half-maximal response. One may read the % Inhibition as the relative decrease from the control value, in per cent.

In assay [1] the test system is Friend Leukemia Virus. Description: In vivo inhibition of Friend Leukemia Virus splenomegaly, intravenous 1-2 hours post infection (Example 10). Details: species or system mice. The settings on record: Mus musculus, read-out: EC50 for FV-induced splenomegaly. The procedure: (§1) (3) In vivo inhibition of Friend Leukemia Virus Splenomegaly performed as described in Example 1 above except that the compounds were administered intravenously 1-2 hours post infection.
(§2) The results presented above in Table IX are presented as EC50 concentrations. These are the effective concentrations which inhibit 50% of the viruses in micromolar concentrations.

Assay [2] concerns Friend Leukemia Virus. Nature of the assay: Inhibition of Friend Leukemia Virus-induced splenomegaly in mice, compounds intraperitoneally 24 hours after virus (Example 1(a)). It counts as in vivo, BALB/c mice. Also on record: Actual Spleen Weight / Average Spleen Weight: unit not given here. To be noted: for Spleen weight: single animal, listed as PS. The method, boiled down: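 BALB/c mice inoculated i.v. with 10^6 FFU Friend virus (spleen homogenate); compounds given i.p. 24 h later at 100 μg once, or 50, 100, 200 μg or 2×100 μg (second dose 24–48 h after first), two mice per group. Spleens weighed at day 10; percent inhibition from average spleen weights relative to negative and positive controls.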

Assay [3] relates to virus budding in virus-producing cells. Nature of the assay: In vitro inhibition of virus budding: production of defective budded virions (Example 10). It is filed as cell-based. The settings on record: read-out: EC50 for production of defective budded virions.
From the text: as §2

In the next assay the test system is retroviruses. Description: Comparison over two in vitro and one in vivo biological assays (Example 10). As to the method: In order to investigate the structural features of hypericin which are essential for antiretroviral activity, numerous analogs and precursors of hypericin were examined for activity in two in vitro and one in vivo biological assay.
(1) Direct inactivation of retroviruses in vitro, performed as in Example 3 above;
as §1

The subject of assay [4] is Friend Leukemia Virus. Nature of the assay: Intravenous co-administration of pseudohypericin with Friend Leukemia Virus, splenomegaly. It is filed as in vivo, mouse. The settings on record: for Spleen Weights: single animal, listed as PS. The procedure: A different experimental design was used involving the simultaneous intravenous co-administration of Ps with the FV complex. In this case, the viral preparation was mixed with Ps at various concentrations and the mixture was injected into the mouse tail vein in a final volume of 0.5 ml. The mice were sacrificed ten days later, their spleens weighed, and the level of inhibition of splenomegaly subsequently determined.
The effect of intravenous co-administration of pseudohypericin (diluted in PBS with 1% EtOH) with FV, on viral-induced splenomegaly.

[5] abbreviates: FV + PS 5 mcg i.v. co-administration.
Where [6] appears, read: FV + PS 20 mcg i.v. co-administration.
Setting [7] is: FV + PS 50 mcg i.v. co-administration.
Where [8] appears, read: FV 2 × 10^5 FFU, PS 80 mcg/mouse.
Setting [9] is: FV 2 × 10^5 FFU, PS 80 mcg/mouse 2 inject.
Where [10] appears, read: FV 10^6 FFU, PS 80 mcg/mouse 2 injections.

Values joined by “and” are separate entries in the source; they are usually repeats but may differ in a detail not shown here. Equal values may be shown once. Read-outs that look alike come from different tables or passages of the source. Some results are limits rather than exact numbers.

For `O=C1c2ccccc2C(=C2c3ccccc3C(=O)c3ccccc32)c2ccccc21` [Compound 36, Bianthrone], the EC50 was 98 µM with Friend Leukemia Virus [1] (i.v. 1-2 hours post infection, Table IX) and > 100 µM in assay [3] (in vitro, Table IX). In addition, the inhibition in vivo at 0.1 mg with Friend Leukemia Virus [2] (Mus musculus, ip, dose 2 × 100 (micrograms) i.p., Table III, read-out: Average Perdosage % Inhibition) was 50%; with Friend Leukemia Virus [2] (Mus musculus, ip, dose 100 (micrograms) i.p., Table III, read-out: Average Perdosage % Inhibition), 48%. In addition, the inhibition in vivo at 0.05 mg in the assay on Friend Leukemia Virus [2] (Mus musculus, ip, dose 50 (micrograms) i.p., Table III, read-out: Average Perdosage % Inhibition) came out at 52%. In the assay with Friend Leukemia Virus [2] (Mus musculus, ip, dose 200 (micrograms) i.p., Table III, read-out: Average Perdosage % Inhibition), the inhibition in vivo at 0.2 mg was found to be 57%. In addition, the “Average Spleen Weight” value in the assay with Friend Leukemia Virus [2] (dose 2 × 100 (micrograms) i.p., Table III) is 1.1353; in the assay with Friend Leukemia Virus [2] (dose 50 (micrograms) i.p., Table III) it was 1.0839; in the assay on Friend Leukemia Virus [2] (dose 100 (micrograms) i.p., Table III), 1.1575; in the assay with Friend Leukemia Virus [2] (dose 200 (micrograms) i.p., Table III), 0.9970. The “Pooled Average % Inhibition” value in the assay on Friend Leukemia Virus [2] (pooled over 50, 100, 200, 2 × 100 micrograms, Table III) is 52%.

Consider `O=C(O)c1cc(O)c2c(=O)c3c(O)cc(O)c4c5c(O)cc(O)c6c(=O)c7c(O)cc(C(=O)O)c8c1c2c(c34)c(c65)c78` [WIS-1, Hypericin-dicarboxylic acid], for which the EC50 in assay [3] was > 100 µM. In the assay with retroviruses (Example 10, structural comparison), the “loss of antiviral activity relative to parent” value is recorded as “diminished the antiviral activity”.

For the compound `Cc1cc(O)c2c(=O)c3c(O)cc(O)c4c5c(O)cc(O)c6c(=O)c7c(O)cc(CO)c8c1c2c(c34)c(c65)c78` [pseudohypericin, Pseudohypericin], the concentration for a half-maximal effect (EC50) with Friend Leukemia Virus [1] worked out at 3.8 µM. Also, the “Spleen Weights, mean (x)” value was 0.3862 grams in the assay on Friend Leukemia Virus [4] (setting [5]), 0.1614 grams in the assay with Friend Leukemia Virus [4] (setting [6]) and 0.1572 grams in the assay with Friend Leukemia Virus [4] (setting [7]). The “Spleen Weights” value with Friend Leukemia Virus [4] (setting [5]) was 0.3425 grams and 0.3766 grams and 0.4005 grams and 0.4255 grams; in the assay with Friend Leukemia Virus [4] (setting [6]), 0.1655 grams and 0.1426 grams and 0.1433 grams and 0.1966 grams; in the assay with Friend Leukemia Virus [4] (setting [7]) it was 0.1830 grams and 0.1674 grams and 0.1422 grams and 0.1365 grams. Further, the “% Inhibition” value with Friend Leukemia Virus [4] (FV + PS 5 mcg per mouse i.v. co-administration) was determined as 75.44%; in the assay on Friend Leukemia Virus [4] (FV + PS 20 mcg per mouse i.v. co-administration), 100%; in the assay on Friend Leukemia Virus [4] (FV + PS 50 mcg per mouse i.v. co-administration), 100%. Besides, the “median inhibition in spleen enlargement” value in the assay with Friend Leukemia Virus [2] (80 micrograms per mouse single injection, 2×10^5 FFU) is 89.6%. For the same compound, in the assay on Friend Leukemia Virus [2] (Example 1(a)), the “inhibition of FV-induced splenomegaly / anti-retroviral activity” value is given as “marked decrease in the spleen enlargement capacity of the Friend Leukemia Virus”. Moreover, the “% Inhib” value in the assay on Friend Leukemia Virus [2] (setting [8]) is on record as 81.15%; with Friend Leukemia Virus [2] (setting [9]), 89.58%; in the assay on Friend Leukemia Virus [2] (FV 10^6 FFU, PS 80 mcg/mouse) it was 90.70%; in the assay with Friend Leukemia Virus [2] (setting [10]) it was 93.82%. The “Net change from control” value in the assay with Friend Leukemia Virus [2] (setting [8]) was found to be 0.1292; in the assay with Friend Leukemia Virus [2] (setting [9]), 0.0714; in the assay on Friend Leukemia Virus [2] (FV 10^6 FFU, PS 80 mcg/mouse), 0.0841; in the assay with Friend Leukemia Virus [2] (setting [10]), 0.0558. Moreover, the “Spleen weight, mean (x)” value stood at 0.3138 ± 0.1197 gms in the assay with Friend Leukemia Virus [2] (setting [8]); 0.2560 ± 0.0723 gms with Friend Leukemia Virus [2] (setting [9]); 0.2687 ± 0.0621 gms with Friend Leukemia Virus [2] (FV 10^6 FFU, PS 80 mcg/mouse); 0.2404 ± 0.0482 gms in the assay with Friend Leukemia Virus [2] (setting [10]). Also, the Spleen weight with Friend Leukemia Virus [2] (setting [9]) was 0.3457 gms and 0.2784 gms and 0.2208 gms and 0.1791 gms; in the assay with Friend Leukemia Virus [2] (setting [8]), 0.4924 gms and 0.2469 gms and 0.2722 gms and 0.2438 gms; in the assay on Friend Leukemia Virus [2] (setting [10]) it was 0.2831 gms and 0.2761 gms and 0.2215 gms and 0.1810 gms; in the assay on Friend Leukemia Virus [2] (FV 10^6 FFU, PS 80 mcg/mouse), 0.2457 gms and 0.3400 gms and 0.2938 gms and 0.1956 gms. Moreover, the “median inhibition of splenomegaly” value with Friend Leukemia Virus [2] (single injection of 80 micrograms per mouse) was determined as 93.8%; in the assay on Friend Leukemia Virus [2] (two daily consecutive injections of 80 micrograms per mouse, 2×10^5 FFU), 81.7%; with Friend Leukemia Virus [2] (two daily consecutive injections of 80 micrograms per mouse, 10^6 FFU) it was 90.7%. Further, the “activity across assays” value in the assay on retroviruses (Example 10) was “high degree of activity in a more than one assay”.
